According to patent US6150414A, “Compositions and methods for treating viral infections” (priority 1992, dated 2000):
Several values for one entry are separate records, joined by “and”; a condition that tells them apart may be missing. Equal entries are not always repeated. Where two headings read alike, the source gives them in different places.

System: Friend Leukemia Virus
Experiment: Inhibition of Friend Leukemia Virus-induced splenomegaly in mice, compounds intraperitoneally 24 hours after virus (Example 1(a))
Format: in vivo, BALB/c mice
Set-up: Actual Spleen Weight / Average Spleen Weight: unit not given here
Conditions: for inhibition in vivo at 0.1 mg / inhibition in vivo at 0.05 mg / inhibition in vivo at 0.2 mg: Mus musculus, ip; for Pooled Average % Inhibition: pooled over 50, 100, 200, 2 × 100 micrograms; for Actual Spleen Weight: single animal; for inhibition of FV-induced splenomegaly / anti-retroviral activity: Example 1(a)
Excerpt: The effects of compositions according to the present invention on infection of mammals with Friend Leukemia Virus (FV) were examined.
Friend Leukemia Virus is an aggressive retrovirus which induces an acute erythroleukemia in sensitive strains of mice such as BALB/c and NIH swiss mice as described in Friend, C. J., Exp. Med. 105: 307-324, 1957; Friend, C. et al. Proc. Natl. Acad. Sci. USA 68: 378-383, 1971; Friend, C. et al. Natl. Cancer Inst. Mongr. 22: 508-552, 1966. The malignant transformation is the result of the combined activities of the Spleen Focus Forming Virus (SFFV) and the ecotropic Murine Friend Leukemia Helper Virus (F-MuLV). The acute erythroleukemia is characterized by hepatosplenomegaly (a marked increase in the size of the spleen and liver) and a severe anemia.
Friend Leukemia Virus was prepared by homogenizing the enlarged spleen of a mouse previously infected with FV, 10 days after intravenous virus injection. The spleen was homogenized in phosphate buffered saline in a volume equal to ten times the weight of the isolated spleen.
The effects of compositions according to the present invention on the increase in spleen size (splenomegaly) of BALB/c mice (Jackson Labs, Bar Harbor, ME) was examined. In these experiments, the virus (10^6 focus forming units--FFU) was inoculated intravenously and 100 micrograms of the compounds indicated in Table II were administered to the mice intraperitoneally 24 hours later. Each compound was administered once to two mice. The animals were sacrificed ten days later and their spleens weighed.
The present assay has been developed from similar assays using hypericin or pseudohypericin and employing higher numbers of experimental animals per group (e.g. 4 animals). It was discovered however that the specificity and sensitivity of this assay are such that an experimental group of two animals is of more than adequate predictive value.
As used in Table II (and subsequent Tables of this Example l(a) and (b), "average percent inhibition" is calculated as follows: [formula] wherein "ASWNC" designates "average spleen weight of negative control"; "ASWE" designates "average spleen weight of experimental (treated) subject"; and "ASWPC" designates "average spleen weight of positive control". Average spleen weight is the numerical average of spleen weights of each experimental group (in Table II each such group includes two members).
In these experiments, the virus (10^6 focus forming units--FFU) was inoculated intravenously, and the indicated doses of the antiviral compounds of this invention were administered to the BALB/c mice intraperitoneally 24 hours later. The animals were then sacrificed ten days later and their spleens weighed.
Pseudohypericin was diluted in phosphate buffered saline with 1% ethanol.
An expanded series of experiments was next performed in which various concentrations (i.e. 50, 100, 200 and 2×100, i.e., 100 micrograms administered twice) of a different set of PAC compounds (numbers 16-29 and 30-36 in Table III below) were administered intraperitoneally each according to the same protocol described above. Compounds 16-29 all had 3-5 fused, aromatic rings and no side groups except for oxygen or hydroxyl groups, whereas compounds 30-36 all had 3 fused aromatic rings and side chains selected from the group of oxygen, hydroxyl and methyl.
When 2 doses of the compounds were given, the second dose was administered 24-48 hours after the first injection. The animals were infected and splenomegaly determined as above for the compounds in Table II. In Table III, "pooled average percent inhibition" is calculated by adding the average percent inhibition for each experiment with the same compound and dividing the sum by the number of experiments (i.e. the number 4). […]

[1] = read-out: Average Perdosage % Inhibition, dose 2 × 100 (micrograms) i.p., Table III
[2] = read-out: Average Perdosage % Inhibition, dose 50 (micrograms) i.p., Table III
[3] = read-out: Average Perdosage % Inhibition, dose 100 (micrograms) i.p., Table III
[4] = read-out: Average Perdosage % Inhibition, dose 200 (micrograms) i.p., Table III
[5] = dose 2 × 100 (micrograms) i.p., Table III
[6] = dose 50 (micrograms) i.p., Table III
[7] = dose 100 (micrograms) i.p., Table III
[8] = dose 200 (micrograms) i.p., Table III
[9] = dose 2 × 100 (micrograms) i.p., Table III, read-out: Average Perdosage % Inhibition
[10] = dose 50 (micrograms) i.p., Table III, read-out: Average Perdosage % Inhibition
[11] = dose 100 (micrograms) i.p., Table III, read-out: Average Perdosage % Inhibition
[12] = dose 200 (micrograms) i.p., Table III, read-out: Average Perdosage % Inhibition
[13] = 100 micrograms i.p. once, 24 h after FV, Table II
[14] = 24 h, 100 micrograms i.p. once, 24 h after FV, Table II, read-out: Average % Inhibition
[15] = dose 2 × 100 (micrograms) i.p., second dose 24-48 hours later, Table III

Molecule	Average Spleen Weight [5]	Average Spleen Weight [6]	Average Spleen Weight [7]	Average Spleen Weight [8]	Pooled Average % Inhibition (Table III) [%]	Average Spleen Weight [13]	also measured
O=c1c2ccccc2oc2ccccc12 [Compound 31, Xanthone]	0.9003	1.0006	0.9806	0.9431	59	–	inhibition in vivo at 0.1 mg [1]: 62%; inhibition in vivo at 0.05 mg [2]: 57%; inhibition in vivo at 0.1 mg [3]: 58%; inhibition in vivo at 0.2 mg [4]: 60%
c1ccc2c(c1)ccc1ccccc12 [Compound 17, Phenanthrene]	1.0683	1.1350	1.2864	1.3501	26	–	inhibition in vivo at 0.1 mg [9]: 36%; inhibition in vivo at 0.05 mg [10]: 31%; inhibition in vivo at 0.1 mg [11]: 21%; inhibition in vivo at 0.2 mg [12]: 17%
O=C1CC2CCc3ccc4ccccc4c3C2c2c1ccc1ccccc21 (centres unmarked) [Compound 15, 3,4,4A,5,6,12C-Hexahydrophenanthro (3,4-C)phenanthren-3-one]	–	–	–	–	–	0.3739	inhibition in vivo at 0.1 mg [14]: 56.3%
O=C1CC2CC(=O)c3ccc4ccccc4c3C2c2c1ccc1ccccc21 (centres unmarked) [Compound 13, 3,4,4A,5,6,12C-Hexahydrophenanthro (3,4-C)Phenanthrene-3,6-Dione]	–	–	–	–	–	0.4742	inhibition in vivo at 0.1 mg [14]: 44.6%
c1ccc2cc3cc4cc5ccccc5cc4cc3cc2c1 [Compound 28, Pentacene]	1.4102	1.2780	1.5384	1.4278	12	–	inhibition in vivo at 0.1 mg [9]: 13%; inhibition in vivo at 0.05 mg [10]: 22%; inhibition in vivo at 0.1 mg [11]: 4%; inhibition in vivo at 0.2 mg [12]: 11%
c1ccc(-c2c3ccccc3c(-c3ccccc3)c3ccccc23)cc1 [Compound 22, 9,10-Diphenylanthracene]	1.4120	0.9936	1.5171	1.5913	15	–	inhibition in vivo at 0.1 mg [1]: 13%; inhibition in vivo at 0.05 mg [2]: 41%; inhibition in vivo at 0.1 mg [3]: 5%; inhibition in vivo at 0.2 mg [4]: 0%
c1cc2cccc3c4cccc5cccc(c(c1)c23)c54 [Compound 27, Perylene]	1.4342	1.3148	1.5227	1.6044	9	–	inhibition in vivo at 0.1 mg [1]: 11%; inhibition in vivo at 0.05 mg [2]: 19%; inhibition in vivo at 0.1 mg [3]: 5%; inhibition in vivo at 0.2 mg [4]: 1%
C1=CCC2=C(C1)CC1=C(CC=CC1)C2 [Compound 21, 1,4,5,8,9,10-Hexahydroanthracene]	1.2624	1.4036	1.4121	1.2947	17	–	inhibition in vivo at 0.1 mg [9]: 23%; inhibition in vivo at 0.05 mg [10]: 13%; inhibition in vivo at 0.1 mg [11]: 13%; inhibition in vivo at 0.2 mg [12]: 21%
O=C1c2ccc(O)cc2C(=O)c2ccc(O)cc21 [Compound 32, Anthraflavic acid]	0.9325	1.5718	1.1542	0.8593	50	–	inhibition in vivo at 0.1 mg [9]: 60%; inhibition in vivo at 0.05 mg [10]: 26%; inhibition in vivo at 0.1 mg [11]: 49%; inhibition in vivo at 0.2 mg [12]: 64%
O=c1oc(=O)c2c3ccc4cccc5c6cccc7ccc(c12)c(c76)c3c45 [Compound 5, Benzo(GHI)Perylene-1,2-Dicarboxylic Anhydride]	–	–	–	–	–	0.5101	inhibition in vivo at 0.1 mg (24 h, read-out: Average % Inhibition, 100 micrograms i.p. once, 24 h after FV, Table II): 40.5%
O=C1c2ccccc2-c2cc(O)c3c4c(O)cc5c6c(ccc(c7ccc1c2c73)c64)C(=O)c1ccccc1-5 [Compound 4, 16,17-Dihydroxydibenzanthrone]	–	–	–	–	–	0.4194	Average % Inhibition [13]: 50.9%; Actual Spleen Weight [13]: 0.4151 and 0.4234
c1ccc2c(c1)C1c3ccccc3C2c2ccccc21 [Compound 7, Triptycene]	–	–	–	–	–	0.4655	inhibition of FV-induced splenomegaly / anti-retroviral activity: significantly inhibited FV-induced splenomegaly; inhibition in vivo at 0.1 mg [14]: 45.6%
C=Cc1c2ccccc2cc2ccccc12 [Compound 29, 9-Vinylanthracene]	1.3747	1.6517	1.2199	1.2933	14	–	inhibition in vivo at 0.1 mg [1]: 15%; inhibition in vivo at 0.05 mg [2]: 4%; inhibition in vivo at 0.1 mg [3]: 26%; inhibition in vivo at 0.2 mg [4]: 21%; Actual Spleen Weight [15]: 1.3747; Actual Spleen Weight [8]: 1.2933
c1cc2cccc3c2c(c1)c1c2c4cccc5cccc(c54)c2c2c4cccc5cccc(c54)c2c31 [Compound 1, Decacyclene]	–	–	–	–	–	0.3636	Average % Inhibition [13]: 57.5%; Actual Spleen Weight [13]: 0.3940 and 0.3331; inhibition of FV-induced splenomegaly / anti-retroviral activity: significantly inhibited FV-induced splenomegaly
Phenylanthracene [Compound 18]	1.2169	1.1803	1.554	1.3296	19	–	Actual Spleen Weight [15]: 1.4116 and 1.0222; Average Perdosage % Inhibition [5]: 26%; Average Perdosage % Inhibition [6]: 28%; Actual Spleen Weight [6]: 1.1141 and 1.2464; Average Perdosage % Inhibition [7]: 3%; Actual Spleen Weight [7]: 1.6206 and 1.4902; Average Perdosage % Inhibition [8]: 18%; Actual Spleen Weight [8]: 1.3797 and 1.2794
O=C1c2ccccc2C(=O)C1c1ccccc1 [Compound 33, 2-phenyl-1,2 inadione]	0.9127	0.9410	1.7763	0.7938	51	–	inhibition in vivo at 0.1 mg [9]: 61%; inhibition in vivo at 0.05 mg [10]: 60%; inhibition in vivo at 0.1 mg [11]: 16%; inhibition in vivo at 0.2 mg [12]: 68%
O=C1OC(=O)c2ccc3c4ccc5c6c(ccc(c7ccc1c2c73)c64)C(=O)OC5=O [Compound 2, 3,4,9,10-Perylenetetracarboxylic dianhydride]	–	–	–	–	–	0.8439	Average % Inhibition [13]: 1.3%; Actual Spleen Weight [13]: 0.8678 and 0.8200
O=c1oc(=O)c2c3ccc4ccc5ccc6ccc7ccc(c12)c1c7c6c5c4c31 [Compound 6, 3,4-Coronenedicarboxylic anhydride]	–	–	–	–	–	0.8700	–
